Results on 21 compounds are retold here after ChEMBL document CHEMBL1126210, “Conformationally restricted peptide isosteres. 2.1 Synthesis and in vitro potency of dipeptide renin inhibitors employing a 2-alkylsulfonyl-3-phenylcyclopropane carboxamide as a P3 amino acid replacement” (Bioorg Med Chem Lett, 1992).

Assay [1] has as its target T1, Renin (Homo sapiens, UniProt P00797).
T1 sequence (P00797 whole entry): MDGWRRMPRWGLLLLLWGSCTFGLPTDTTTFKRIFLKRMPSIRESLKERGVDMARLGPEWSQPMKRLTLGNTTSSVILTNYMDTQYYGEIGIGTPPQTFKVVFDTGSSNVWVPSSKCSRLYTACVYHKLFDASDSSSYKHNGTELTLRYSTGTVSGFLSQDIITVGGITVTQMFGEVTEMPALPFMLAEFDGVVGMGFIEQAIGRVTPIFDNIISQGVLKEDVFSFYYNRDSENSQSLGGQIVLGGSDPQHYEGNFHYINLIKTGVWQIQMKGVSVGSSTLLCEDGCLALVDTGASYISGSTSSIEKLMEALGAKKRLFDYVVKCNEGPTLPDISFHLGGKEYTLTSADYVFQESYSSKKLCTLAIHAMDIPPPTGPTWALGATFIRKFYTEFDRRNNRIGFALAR
The assay is described as follows: In vitro inhibition of human plasma renin at PH 7.4.

The target in assay [2] is T1, Renin. The assay is described as follows: In vitro inhibition of purified human renin at PH 6.0.

Molecules are shown by their SMILES.

The IC50 is the concentration that inhibits the measured activity by half. Read a high IC50 as weaker potency. For the compound `CC(C)C[C@H](O)[C@H](O)[C@H](CC1CCCCC1)NC(=O)[C@H](Cc1cscn1)NC(=O)[C@H]1[C@H](CC(=O)N2CCOCC2)[C@@H]1c1ccccc1`, the figures for the IC50 against Renin [1] and against Renin [2] were 20 nM and 0.7 nM, respectively.
As for `CC(C)C[C@H](O)[C@H](O)[C@H](CC1CCCCC1)NC(=O)[C@H](Cc1cscn1)NC(=O)[C@H](Cc1ccccc1)CS(=O)(=O)C(C)(C)C`, inhibition on Renin [1] was half-maximal at 0.87 nM (IC50).
As for `CC(C)C[C@H](O)[C@H](O)[C@H](CC1CCCCC1)NC(=O)[C@H](Cc1cscn1)NC(=O)[C@@H]1[C@@H](C2CCCCC2)[C@H]1S(=O)(=O)C(C)C`, the IC50 against Renin [1] is 15 nM; against Renin [2] it was 0.79 nM.
As to `CC(C)C[C@H](O)[C@H](O)[C@H](CC1CCCCC1)NC(=O)[C@H](Cc1cscn1)NC(=O)[C@H]1[C@H](c2ccccc2)[C@@H]1S(=O)(=O)C(C)C`, the results for the IC50 at Renin [1] and on Renin [2] were 85 nM and 7 nM, respectively.
With `C=CS(=O)(=O)[C@@H]1[C@@H](C(=O)N[C@@H](Cc2cscn2)C(=O)N[C@@H](CC2CCCCC2)[C@@H](O)[C@@H](O)CC(C)C)[C@@H]1c1ccccc1`, the results for the IC50 against Renin [1] and against Renin [2] were 27 nM and 7.2 nM, respectively.
`CC(C)C[C@H](O)[C@H](O)[C@H](CC1CCCCC1)NC(=O)[C@H](Cc1cscn1)NC(=O)[C@H](Cc1ccccc1)CS(=O)(=O)N1CCOCC1` had an IC50 on Renin [1] of 1.4 nM.
For the compound `CC(C)C[C@H](O)[C@H](O)[C@H](CC1CCCCC1)NC(=O)[C@H](Cc1cscn1)NC(=O)[C@@H]1[C@@H](c2ccccc2)[C@H]1S(=O)(=O)c1ccccc1`, the values for the IC50 on Renin [1] and on Renin [2] were 29 nM and 1.2 nM, respectively.
`CC(C)C[C@H](O)[C@H](O)[C@H](CC1CCCCC1)NC(=O)[C@H](Cc1cscn1)NC(=O)[C@H]1[C@H](C2CCCCC2)[C@@H]1S(=O)(=O)C(C)C` showed an IC50 at Renin [2] of 14 nM.
In the case of `CC(C)C[C@H](NC(=O)[C@H]1[C@H](c2ccccc2)[C@@H]1S(=O)(=O)C(C)C)C(=O)N[C@@H](CC1CCCCC1)[C@@H](O)[C@@H](O)CC(C)C`, the IC50 came to 370 nM against Renin [1] and 4.4 nM against Renin [2].
Consider `CCCC[C@H](NC(=O)[C@@H]1[C@@H](c2ccccc2)[C@H]1S(=O)(=O)C(C)C)C(=O)N[C@@H](CC1CCCCC1)[C@@H](O)[C@@H](O)CC(C)C`, for which the IC50 on Renin [1] is 13 nM; against Renin [2], 0.37 nM.
Taken in the same sequence, the figures for `CC(C)C[C@H](O)[C@H](O)[C@H](CC1CCCCC1)NC(=O)[C@H](Cc1cscn1)NC(=O)[C@@H]1[C@@H](c2ccccc2)[C@H]1S(C)(=O)=O` were 23 nM and 0.63 nM.
Taken in the same sequence, the figures for `CC(C)C[C@H](O)[C@H](O)[C@H](CC1CCCCC1)NC(=O)[C@H](Cn1ccnc1)NC(=O)[C@H]1[C@H](c2ccccc2)[C@@H]1S(=O)(=O)C(C)C` were 15 nM and 2.5 nM.
As to `CC(C)C[C@H](O)[C@H](O)[C@H](CC1CCCCC1)NC(=O)[C@H](Cc1cscn1)NC(=O)[C@@H]1[C@@H](c2ccccc2)[C@H]1S(=O)(=O)C(C)C`, the IC50 against Renin [1] turned out to be 7.9 nM; at Renin [2], 0.38 nM.
The like results for `COCOCCS(=O)(=O)[C@H]1[C@H](C(=O)N[C@@H](Cc2cscn2)C(=O)N[C@@H](CC2CCCCC2)[C@@H](O)[C@@H](O)CC(C)C)[C@H]1c1ccccc1` were, in that order, 16 nM and 0.48 nM.
For the compound `COCOCCS(=O)(=O)[C@@H]1[C@@H](C(=O)N[C@@H](Cc2cscn2)C(=O)N[C@@H](CC2CCCCC2)[C@@H](O)[C@@H](O)CC(C)C)[C@@H]1c1ccccc1`, the values for the IC50 at Renin [1] and against Renin [2] were 33 nM and 1 nM, respectively.
Taken in the same sequence, the figures for `C=CS(=O)(=O)[C@H]1[C@H](C(=O)N[C@@H](Cc2cscn2)C(=O)N[C@@H](CC2CCCCC2)[C@@H](O)[C@@H](O)CC(C)C)[C@H]1c1ccccc1` were 17 nM and 0.63 nM.
Take `CO[C@@H](CC(C)C)[C@H](O)[C@H](CC1CCCCC1)NC(=O)[C@H](Cc1cscn1)NC(=O)C(Cc1ccccc1)CS(=O)(=O)c1ccccc1` (stereo partly drawn): the results for the IC50 on Renin [1] and at Renin [2] were 18 nM and 0.77 nM, respectively.
`CC(C)C[C@H](O)[C@H](O)[C@H](CC1CCCCC1)NC(=O)[C@H](Cn1ccnc1)NC(=O)[C@@H]1[C@@H](c2ccccc2)[C@H]1S(=O)(=O)C(C)C`: the values for the IC50 on Renin [1] and on Renin [2] were 5.8 nM and 1.4 nM, respectively.
Taken in the same sequence, the figures for `CC(C)C[C@H](NC(=O)[C@@H]1[C@@H](c2ccccc2)[C@H]1S(=O)(=O)C(C)C)C(=O)N[C@@H](CC1CCCCC1)[C@@H](O)[C@@H](O)CC(C)C` were 14 nM and 0.59 nM.
The compound `CC(C)C[C@H](O)[C@H](O)[C@H](CC1CCCCC1)NC(=O)[C@H](Cc1cscn1)NC(=O)[C@H]1[C@H](c2ccccc2)[C@@H]1S(C)(=O)=O` returned an IC50 against Renin [2] of 23 nM.
For the compound `CCCC[C@H](NC(=O)[C@H]1[C@H](c2ccccc2)[C@@H]1S(=O)(=O)C(C)C)C(=O)N[C@@H](CC1CCCCC1)[C@@H](O)[C@@H](O)CC(C)C`, the figures for the IC50 at Renin [1] and on Renin [2] were 160 nM and 1.9 nM, respectively.
